From the NIST ThermoML archive (doi:10.1016/j.fluid.2008.03.004)

Tests used:
[1] = 101 kPa, Liquid; for speed of sound: Sing-around technique in a fixed-path interferometer
[2] = xn = mol fraction of the nth substance listed; conditions: 101 kPa, Liquid; for speed of sound: Sing-around technique in a fixed-path interferometer

Cc1ccc(C)cc1 [1,4-dimethylbenzene]
[1]
Conditions | mass density [kg/m3] | speed of sound [m/s]
288.15 K | 865.354 | 1347.9
290.65 K | 863.184 | 1336.9
293.15 K | 861.015 | 1326.1
295.65 K | 858.846 | 1315.6
298.15 K | 856.675 | 1305.4
300.65 K | 854.501 | 1295.3
303.15 K | 852.326 | 1285.4
305.65 K | 850.148 | 1275.6
308.15 K | 847.969 | 1266.1
310.65 K | 845.784 | 1256.4
313.15 K | 843.599 | 1246.8
315.65 K | 841.41 | 1237.6
318.15 K | 839.22 | 1228.1
320.65 K | 837.031 | 1220.5
323.15 K | 834.849 | 1211

Cc1cccc(C)c1 [1,3-dimethylbenzene]
[1]
Conditions | mass density [kg/m3] | speed of sound [m/s]
288.15 K | 868.459 | 1362.7
290.65 K | 866.318 | 1352.1
293.15 K | 864.177 | 1341.7
295.65 K | 862.035 | 1331.3
298.15 K | 859.89 | 1320.9
300.65 K | 857.742 | 1310.6
303.15 K | 855.593 | 1300.3
305.65 K | 853.441 | 1290
308.15 K | 851.282 | 1279.8
310.65 K | 849.122 | 1269.6
313.15 K | 846.958 | 1259.5
315.65 K | 844.792 | 1249.3
318.15 K | 842.622 | 1239.3
320.65 K | 840.452 | 1229.3
323.15 K | 838.289 | 1219.5

Cc1ccc(C)cc1 [1,4-dimethylbenzene] + CCOC(C)(C)C
[2], x2 = 0
Conditions | mass density [kg/m3] | speed of sound [m/s]
288.15 K | 865.354 | 1347.9
290.65 K | 863.184 | 1336.9
293.15 K | 861.015 | 1326.1
295.65 K | 858.846 | 1315.6
298.15 K | 856.675 | 1305.4
300.65 K | 854.501 | 1295.3
303.15 K | 852.326 | 1285.4
305.65 K | 850.148 | 1275.6
308.15 K | 847.969 | 1266.1
310.65 K | 845.784 | 1256.4
313.15 K | 843.599 | 1246.8
315.65 K | 841.41 | 1237.6
318.15 K | 839.22 | 1228.1
320.65 K | 837.031 | 1220.5
323.15 K | 834.849 | 1211

COC(C)(C)C [2-methoxy-2-methylpropane]
[1]
Conditions | mass density [kg/m3] | speed of sound [m/s]
288.15 K | 744.861 | 1083.4
290.65 K | 742.259 | 1071.6
293.15 K | 739.654 | 1060
295.65 K | 737.036 | 1048.5
298.15 K | 734.406 | 1036.9
300.65 K | 731.766 | 1025.4
303.15 K | 729.112 | 1013.9
305.65 K | 726.444 | 1002.4
308.15 K | 723.763 | 990.99
310.65 K | 721.069 | 979.62
313.15 K | 718.357 | 968.16
315.65 K | 715.636 | 956.8
318.15 K | 712.897 | 945.54
320.65 K | 710.141 | 934.24
323.15 K | 707.381 | 922.97

COC(C)(C)C [2-methoxy-2-methylpropane] + Cc1cccc(C)c1
[2], x1 = 1
Conditions | mass density [kg/m3] | speed of sound [m/s]
288.15 K | 744.861 | 1083.4
290.65 K | 742.259 | 1071.6
293.15 K | 739.654 | 1060
295.65 K | 737.036 | 1048.5
298.15 K | 734.406 | 1036.9
300.65 K | 731.766 | 1025.4
303.15 K | 729.112 | 1013.9
305.65 K | 726.444 | 1002.4
308.15 K | 723.763 | 990.99
310.65 K | 721.069 | 979.62
313.15 K | 718.357 | 968.16
315.65 K | 715.636 | 956.8
318.15 K | 712.897 | 945.54
320.65 K | 710.141 | 934.24
323.15 K | 707.381 | 922.97

Cc1ccccc1C [1,2-dimethylbenzene]
[1]
Conditions | mass density [kg/m3] | speed of sound [m/s]
288.15 K | 883.36 | 1381.3
290.65 K | 881.265 | 1371.8
293.15 K | 879.168 | 1362.2
295.65 K | 877.069 | 1351.8
298.15 K | 874.968 | 1341.5
300.65 K | 872.865 | 1331.2
303.15 K | 870.759 | 1321
305.65 K | 868.65 | 1310.8
308.15 K | 866.538 | 1300.7
310.65 K | 864.422 | 1290.6
313.15 K | 862.302 | 1280.6
315.65 K | 860.179 | 1270.5
318.15 K | 858.054 | 1260.6
320.65 K | 855.927 | 1250.7
323.15 K | 853.803 | 1240.9

COC(C)(C)C [2-methoxy-2-methylpropane] + Cc1ccccc1C
[2], x1 = 1
Conditions | mass density [kg/m3] | speed of sound [m/s]
288.15 K | 744.861 | 1083.4
290.65 K | 742.259 | 1071.6
293.15 K | 739.654 | 1060
295.65 K | 737.036 | 1048.5
298.15 K | 734.406 | 1036.9
300.65 K | 731.766 | 1025.4
303.15 K | 729.112 | 1013.9
305.65 K | 726.444 | 1002.4
308.15 K | 723.763 | 990.99
310.65 K | 721.069 | 979.62
313.15 K | 718.357 | 968.16
315.65 K | 715.636 | 956.8
318.15 K | 712.897 | 945.54
320.65 K | 710.141 | 934.24
323.15 K | 707.381 | 922.97

CCOC(C)(C)C [2-ethoxy-2-methylpropane]
[1]
Conditions | mass density [kg/m3] | speed of sound [m/s]
288.15 K | 744.955 | 1076.4
290.65 K | 742.482 | 1065.1
293.15 K | 739.947 | 1053.7
295.65 K | 737.374 | 1042.2
298.15 K | 734.806 | 1031
300.65 K | 732.225 | 1019.8
303.15 K | 729.647 | 1008.6
305.65 K | 727.038 | 997.52
308.15 K | 724.443 | 986.39
310.65 K | 721.826 | 975.42
313.15 K | 719.179 | 964.53
315.65 K | 716.527 | 953.54
318.15 K | 713.96 | 942.67
320.65 K | 711.25 | 931.73
323.15 K | 708.642 | 920.73

Cc1cccc(C)c1 [1,3-dimethylbenzene] + CCOC(C)(C)C
[2], x2 = 0
Conditions | mass density [kg/m3] | speed of sound [m/s]
288.15 K | 868.459 | 1362.7
290.65 K | 866.318 | 1352.1
293.15 K | 864.177 | 1341.7
295.65 K | 862.035 | 1331.3
298.15 K | 859.89 | 1320.9
300.65 K | 857.742 | 1310.6
303.15 K | 855.593 | 1300.3
305.65 K | 853.441 | 1290
308.15 K | 851.282 | 1279.8
310.65 K | 849.122 | 1269.6
313.15 K | 846.958 | 1259.5
315.65 K | 844.792 | 1249.3
318.15 K | 842.622 | 1239.3
320.65 K | 840.452 | 1229.3
323.15 K | 838.289 | 1219.5

Cc1ccc(C)cc1 [1,4-dimethylbenzene] + COC(C)(C)C
[2], x2 = 0
Conditions | mass density [kg/m3] | speed of sound [m/s]
288.15 K | 865.354 | 1347.9
290.65 K | 863.184 | 1336.9
293.15 K | 861.015 | 1326.1
295.65 K | 858.846 | 1315.6
298.15 K | 856.675 | 1305.4
300.65 K | 854.501 | 1295.3
303.15 K | 852.326 | 1285.4
305.65 K | 850.148 | 1275.6
308.15 K | 847.969 | 1266.1
310.65 K | 845.784 | 1256.4
313.15 K | 843.599 | 1246.8
315.65 K | 841.41 | 1237.6
318.15 K | 839.22 | 1228.1
320.65 K | 837.031 | 1220.5
323.15 K | 834.849 | 1211

Cc1ccccc1C [1,2-dimethylbenzene] + CCOC(C)(C)C
[2], x2 = 0
Conditions | mass density [kg/m3] | speed of sound [m/s]
288.15 K | 883.36 | 1381.3
290.65 K | 881.265 | 1371.8
293.15 K | 879.168 | 1362.2
295.65 K | 877.069 | 1351.8
298.15 K | 874.968 | 1341.5
300.65 K | 872.865 | 1331.2
303.15 K | 870.759 | 1321
305.65 K | 868.65 | 1310.8
308.15 K | 866.538 | 1300.7
310.65 K | 864.422 | 1290.6
313.15 K | 862.302 | 1280.6
315.65 K | 860.179 | 1270.5
318.15 K | 858.054 | 1260.6
320.65 K | 855.927 | 1250.7
323.15 K | 853.803 | 1240.9
